Assay results: US20250215039A1, “NUCLEOSIDES FOR TREATING CANCER” (PRIMEFOUR THERAPEUTICS, INC., priority 2022, published 2025)
Read-outs that look alike come from different tables or passages of the source.

Test system: cancer cell lines
Test: Cancer cell proliferation activity (CellTiterGlo, 72 h)
Assay type: cell-based
Details: 72 h, 72 h, read-out: IC50 cell proliferation
In short: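 Cells seeded overnight at 37 °C, then dosed with compound at 0.1% final DMSO and incubated 72 h at 37 °C (5% or 10% CO2 by medium).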

Question: `Nc1nc(F)nc2c1ncn2[C@@H]1O[C@H](CO)[C@@H](O)[C@@H]1O` [compound 170, (2R,3S,4S,5R)-2-(6-amino-2-fluoro-9H-purin-9-yl)-5-(hydroxymethyl)tetrahydrofuran-3,4-diol] was tested. Which IC50 (5637 (bladder)) did it give?
Answer: 2.4 µM

Question: What about the IC50 (CLS439 (bladder)) of the same molecule?
Answer: 45.5 µM

Question: And the IC50 (HS729 (muscle))?
Answer: 3.52 µM

Question: What about the IC50 (J82 (bladder)) of the same molecule?
Answer: 19.4 µM

Question: What about the IC50 (JAR (placenta)) of the same molecule?
Answer: 45.9 µM

Question: And the IC50 (MT3 (breast))?
Answer: 2 µM

Question: What about the IC50 (PANCI (pancreas)) of the same molecule?
Answer: 16.6 µM

Question: What about the IC50 (PC3 (prostate)) of the same molecule?
Answer: 2.54 µM

Question: What about the IC50 (RD (muscle)) of the same molecule?
Answer: 11.9 µM

Question: What about the IC50 (T24 (bladder)) of the same molecule?
Answer: 5.89 µM

Question: And the IC50 (Homo sapiens, 22Rv1, 72 h, 22RV1 (prostate))?
Answer: 79.5 µM

Question: And the IC50 (Homo sapiens, 786-0, 72 h, 786O (kidney))?
Answer: 29.6 µM

Question: What about the IC50 (Homo sapiens, A204, 72 h, A204 (muscle)) of the same molecule?
Answer: 0.53 µM

Question: What about the IC50 (Homo sapiens, A549, 72 h, A549 (lung)) of the same molecule?
Answer: 8.86 µM

Question: What about the IC50 (Homo sapiens, A673, 72 h, A673 (bone)) of the same molecule?
Answer: 10.8 µM

Question: What about the IC50 (Homo sapiens, A2780, 72 h, A2780 (ovary)) of the same molecule?
Answer: 7.16 µM

Question: And the IC50 (Homo sapiens, A-375, 72 h, A375 (skin))?
Answer: 9.75 µM

Question: What about the IC50 (Homo sapiens, A-431, 72 h, A431 (skin)) of the same molecule?
Answer: 11.1 µM

Question: And the IC50 (Homo sapiens, ACHN, ACHN (kidney))?
Answer: 12.7 µM

Question: What about the IC50 (Homo sapiens, ASPC1, 72 h, ASPC1 (pancreas)) of the same molecule?
Answer: 7.85 µM

Question: What about the IC50 (Homo sapiens, BT-20, 72 h, BT20 (breast)) of the same molecule?
Answer: 38.2 µM

Question: What about the IC50 (Homo sapiens, BXPC-3, 72 h, BXPC3 (pancreas)) of the same molecule?
Answer: 6.87 µM

Question: What about the IC50 (Homo sapiens, C-33-A, C33A (endometrial)) of the same molecule?
Answer: 9.56 µM

Question: And the IC50 (Homo sapiens, CAKI-1, 72 h, CAKI1 (kidney))?
Answer: 2.46 µM

Question: And the IC50 (Homo sapiens, COLO 205, 72 h, COLO205 (colon))?
Answer: 2.8 µM

Question: What about the IC50 (Homo sapiens, COLO-678, 72 h, COLO678 (colon)) of the same molecule?
Answer: 21.8 µM

Question: What about the IC50 (Homo sapiens, Ca-Ski, CASKI (endometrial)) of the same molecule?
Answer: 107 µM

Question: And the IC50 (Homo sapiens, Caco-2, 72 h, CACO2 (colon))?
Answer: 49.2 µM

Question: And the IC50 (Homo sapiens, Calu-6, 72 h, CALU6 (lung))?
Answer: 17.3 µM

Question: And the IC50 (Homo sapiens, DLD-1, 72 h, DLD1 (colon))?
Answer: 11.4 µM

Question: What about the IC50 (Homo sapiens, DU-145, 72 h, DU145 (prostate)) of the same molecule?
Answer: 5.44 µM

Question: And the IC50 (Homo sapiens, EFO-21, 72 h, EFO21 (ovary))?
Answer: 7.34 µM

Question: And the IC50 (Homo sapiens, EJ-28, 72 h, EJ28 (bladder))?
Answer: 10.4 µM

Question: And the IC50 (Homo sapiens, Granta-519, 72 h, GRANTA-519 (hematological))?
Answer: 1.66 µM

Question: What about the IC50 (Homo sapiens, HCT-15, 72 h, HCT15 (colon)) of the same molecule?
Answer: 12.4 µM

Question: And the IC50 (Homo sapiens, HCT-116, 72 h, HCT116 (colon))?
Answer: 5.26 µM

Question: What about the IC50 (Homo sapiens, HEK293, 72 h, HEK293 (kidney)) of the same molecule?
Answer: 35.2 µM

Question: What about the IC50 (Homo sapiens, HL-60, 72 h, HL-60 (hematological)) of the same molecule?
Answer: 2.05 µM

Question: And the IC50 (Homo sapiens, HT-29, 72 h, HT29 (colon))?
Answer: 18.4 µM

Question: And the IC50 (Homo sapiens, HT-1080, 72 h, HT1080 (connective tissue))?
Answer: 4.09 µM

Question: And the IC50 (Homo sapiens, HeLa, HELA (endometrial))?
Answer: 6.72 µM

Question: What about the IC50 (Homo sapiens, HepG2, 72 h, HEPG2 (liver)) of the same molecule?
Answer: 15.3 µM

Question: And the IC50 (Homo sapiens, Hs-578T, HS578T (breast))?
Answer: 36.6 µM

Question: What about the IC50 (Homo sapiens, IGROV-1, 72 h, IGROV1 (ovary)) of the same molecule?
Answer: 13.6 µM

Question: What about the IC50 (Homo sapiens, IMR-90, 72 h, IMR90 (lung)) of the same molecule?
Answer: 11.8 µM

Question: And the IC50 (Homo sapiens, JEG-3, 72 h, JEG3 (placenta))?
Answer: 56.8 µM

Question: What about the IC50 (Homo sapiens, JIMT-1, 72 h, JIMT1 (breast)) of the same molecule?
Answer: 1.66 µM

Question: And the IC50 (Homo sapiens, K562, 72 h, K-562 (hematological))?
Answer: 41.8 µM

Question: What about the IC50 (Homo sapiens, Kasumi 1, 72 h, KASUMI-1 (hematological)) of the same molecule?
Answer: 0.55 µM

Question: And the IC50 (Homo sapiens, L-363, 72 h, L-363 (hematological))?
Answer: 33 µM

Question: What about the IC50 (Homo sapiens, LoVo, LOVO (colon)) of the same molecule?
Answer: 9.73 µM

Question: What about the IC50 (Homo sapiens, MCF7, 72 h, MCF7 (breast)) of the same molecule?
Answer: 27.2 µM

Question: What about the IC50 (Homo sapiens, MDA-MB-231, 72 h, MDAMB231 (breast)) of the same molecule?
Answer: 2.88 µM

Question: What about the IC50 (Homo sapiens, MDA-MB-435, 72 h, MDAMB435 (skin)) of the same molecule?
Answer: 14.2 µM

Question: What about the IC50 (Homo sapiens, MDA-MB-436, 72 h, MDAMB436 (breast)) of the same molecule?
Answer: 3.35 µM

Question: What about the IC50 (Homo sapiens, MDA-MB-468, 72 h, MDAMB468 (breast)) of the same molecule?
Answer: 23.6 µM

Question: What about the IC50 (Homo sapiens, MG-63, 72 h, MG63 (bone)) of the same molecule?
Answer: 15.5 µM

Question: What about the IC50 (Homo sapiens, MHH-ES-1, 72 h, MHHES1 (bone)) of the same molecule?
Answer: 5.05 µM

Question: What about the IC50 (Homo sapiens, MIA PaCa-2, 72 h, MIAPACA2 (pancreas)) of the same molecule?
Answer: 35.4 µM

Question: What about the IC50 (Homo sapiens, MINO, MINO (hematological)) of the same molecule?
Answer: 0.61 µM

Question: What about the IC50 (Homo sapiens, MV4-11, 72 h, MV4-11 (hematological)) of the same molecule?
Answer: 5.77 µM

Question: What about the IC50 (Homo sapiens, NCI-H23, 72 h, NCI-H23 (lung)) of the same molecule?
Answer: 8.19 µM

Question: What about the IC50 (Homo sapiens, NCI-H82, 72 h, NCIH82 (lung)) of the same molecule?
Answer: 21.3 µM

Question: And the IC50 (Homo sapiens, NCI-H292, 72 h, NCIH292 (lung))?
Answer: 8.01 µM

Question: And the IC50 (Homo sapiens, NCI-H460, 72 h, NCIH460 (lung))?
Answer: 32.5 µM

Question: What about the IC50 (Homo sapiens, OVCAR-3, 72 h, OVCAR3 (ovary)) of the same molecule?
Answer: 1.13 µM

Question: What about the IC50 (Homo sapiens, OVCAR-4, 72 h, OVCAR4 (ovary)) of the same molecule?
Answer: 16.3 µM

Question: And the IC50 (Homo sapiens, PLC-PRF-5, 72 h, PLCPRF5 (liver))?
Answer: 20.1 µM

Question: What about the IC50 (Homo sapiens, Panc1005, 72 h, PANC1005 (pancreas)) of the same molecule?
Answer: 5.7 µM

Question: What about the IC50 (Homo sapiens, Ramos, RAMOS (hematological)) of the same molecule?
Answer: 5.1 µM

Question: What about the IC50 (Homo sapiens, SAOS-2, 72 h, SAOS2 (bone)) of the same molecule?
Answer: 0.45 µM

Question: What about the IC50 (Homo sapiens, SF-268, 72 h, SF268 (brain)) of the same molecule?
Answer: 16.3 µM

Question: What about the IC50 (Homo sapiens, SF-295, 72 h, SF295 (brain)) of the same molecule?
Answer: 86.5 µM

Question: What about the IC50 (Homo sapiens, SK-BR-3, 72 h, SKBR3 (breast)) of the same molecule?
Answer: 1.58 µM

Question: What about the IC50 (Homo sapiens, SK-HEP1, 72 h, SKHEP1 (liver)) of the same molecule?
Answer: 5.36 µM

Question: What about the IC50 (Homo sapiens, SK-LMS-1, 72 h, SKLMS1 (uterus)) of the same molecule?
Answer: 44.3 µM

Question: What about the IC50 (Homo sapiens, SK-MEL-5, 72 h, SKMEL5 (skin; SKMELS [sic] in Table 9E)) of the same molecule?
Answer: 15.9 µM

Question: What about the IC50 (Homo sapiens, SK-MEL-28, 72 h, SKMEL28 (skin)) of the same molecule?
Answer: 11.1 µM

Question: What about the IC50 (Homo sapiens, SK-N-AS, SKNAS (brain)) of the same molecule?
Answer: 29.5 µM

Question: And the IC50 (Homo sapiens, SK-N-SH, SKNSH (brain))?
Answer: 22.2 µM

Question: And the IC50 (Homo sapiens, SK-OV-3, 72 h, SKOV3 (ovary))?
Answer: 4.22 µM

Question: And the IC50 (Homo sapiens, SNB-75, 72 h, SNB75 (brain))?
Answer: 50.6 µM

Question: What about the IC50 (Homo sapiens, SU-DHL10, 72 h, SU-DHL-10 (hematological)) of the same molecule?
Answer: 5.61 µM

Question: What about the IC50 (Homo sapiens, SU-DHL-6, 72 h, SU-DHL-6 (hematological)) of the same molecule?
Answer: 38.6 µM

Question: And the IC50 (Homo sapiens, SW-620, 72 h, SW620 (colon))?
Answer: 17.4 µM

Question: What about the IC50 (Homo sapiens, TE-671, 72 h, TE671 (muscle)) of the same molecule?
Answer: 11.1 µM

Question: What about the IC50 (Homo sapiens, THP-1, 72 h, THP-1 (hematological)) of the same molecule?
Answer: 5.86 µM

Question: And the IC50 (Homo sapiens, U2OS, U20S (bone; U2OS in Table 9E))?
Answer: 13.8 µM

Question: And the IC50 (Homo sapiens, U-87 MG, U87MG (brain))?
Answer: 5.59 µM

Question: What about the IC50 (Homo sapiens, UMUC3, 72 h, UMUC3 (bladder)) of the same molecule?
Answer: 21.6 µM

Question: What about the IC50 (Homo sapiens, UO-31, 72 h, UO31 (kidney)) of the same molecule?
Answer: 7.43 µM

Question: What about the IC50 (Homo sapiens, WSU-NHL, WSU-NHL (hematological)) of the same molecule?
Answer: 1.91 µM

Question: And the IC50 (NCI-H358M, NCIH358M (lung))?
Answer: 0.29 µM

Question: And the IC50 (PBMC, PBMC (hematological))?
Answer: 0.29 µM

Question: And the IC50 (RD-ES, RDES (bone))?
Answer: 35.3 µM
